# Like-named read-outs stand apart in the source and are kept apart here.
# What was measured:
# [1] = tested on: Escherichia coli K12 W 3110; experiment: Minimum development inhibiting concentration (MIC) against bacteria, broth dilution method; format: cell-based; settings: for MIC Escherichia coli K12 W 3110: 37° C. 24 hours; for MIC: Escherichia coli, K12W3110, 37° C. 24 hours
# Description: A bacteria solution in stationary state which had been adjusted with a nutrient broth according to an ordinary broth dilution method such that the concentration of bacterial suspension reached 10^6 cell/ml was added to chemical solutions having concentrations which vary stepwise where it was then allowed to stand at a temperature of 37° C. for 24 hours for culture. The bacteria solution was then examined to see if the proliferation of bacteria occurred. Thus, MIC was determined.
# Escherichia coli K12 W 3110 was used as a sample bacterium. Compounds obtained in Examples 1 to 9 and benzalkonium chloride prepared in Comparative Example 1 were used as test samples.
# The compounds obtained in Examples 10 to 19 and benzalkonium chloride were determined for MIC value against Escherichia coli K12 W 3110 in the same manner as in Test Example 3.
# Erythrocyte = experiment: Minimum hemolytic activity concentration against erythrocyte; format: cell-based; settings: human erythrocyte, 37° C. 1 hour, O.D.540, 50% hemolysis
# Description: Human blood was collected. The sample blood was then mixed with the equal amount of alsebar solution (glucose: 2.05 g; NaCl: 0.42 g; sodium citrate: 0.8 g; citric acid: 0.55 g; pH: 6.1). The mixture was then stored at a temperature of 4° C. Shortly before used for experiment, the alsebar stored blood was subjected to centrifugal separation. Thus, the supernatant liquid and the leukocyte layer on the erythrocyte were removed. To the erythrocyte was then added PBS in an amount of […] that of the erythrocyte to obtain a 50% erythrocyte. 10 μl of the 50% erythrocyte was then mixed with 990 μl of each of chemicals which had been diluted with PBS in amounts varying stepwise. The erythrocyte was acted upon by the chemical at a temperature of 37° C. for 1 hour. The mixture was then subjected to centrifugal separation. The supernatant liquid was collected for the measurement of the optical density at 540 nm (O.D.540). Separately, the foregoing procedure was followed except that no chemicals were used to prepare a 0% hemolytic control. The foregoing procedure was followed except that Milliq water was used instead of PBS to prepare a 100% hemolytic control. For the minimum hemolytic activity concentration of chemical, the minimum concentration at which the hemolytic concentration is […] was determined.
# [2] = tested on: Bacillus subtilis IFO 3134; experiment: Minimum bactericidal concentration (MBC) against bacteria; format: cell-based; settings: culture 37° C. 24 hours
# Description: (§1) A bacteria solution in the initial stage of logarithmic productive phase which had been adjusted with a nutrient broth according to an ordinary sterilized water dilution method such that the concentration of bacterial suspension reached 10^6 cell/ml was brought into contact with chemical solutions having concentrations which vary stepwise at a temperature of 30° C. for 30 minutes, and then transplanted to a nutrient broth where it was then allowed to stand at a temperature of 37° C. for 24 hours for culture. The nutrient broth was then examined to see if the proliferation of bacteria occurred. Thus, MBC was determined.
# (§2) Five kinds of gram-negative bacteria and four kinds of gram-positive bacteria were used as sample bacteria.
# (§3) BAMP-6 (Example 12), BAMD-6,8 (Example 13), BAMT-6 (Example 17) and benzalkonium chloride (Comparative Example 1) were determined for MBC value against 5 kinds of gram-negative bacteria and 4 kinds of gram-positive bacteria in the same manner as in Test Example 1.
# Bacillus cereus IFO 3001 = experiment: as above; format: cell-based; settings: culture 37° C. 24 hours
# Description: as §1, §2, §3
# [3] = tested on: Klebsiella pneumoniae ATCC 13883; experiment: as above; format: cell-based; settings: culture 37° C. 24 hours
# Description: as §1, §2, §3
# Proteus rettgeri NIT 96 = experiment: as above; format: cell-based; settings: culture 37° C. 24 hours
# Description: as §1, §2, §3
# [4] = tested on: Escherichia coli K12 W 3110; experiment: as above; format: cell-based; settings: culture 37° C. 24 hours
# Description: as §1, §2, §3
# [5] = tested on: Pseudomonas aeruginosa ATCC 27583; experiment: as above; format: cell-based; settings: culture 37° C. 24 hours
# Description: as §1, §2, §3
# [6] = tested on: Escherichia coli K12 OUT 8401; experiment: as above; format: cell-based; settings: culture 37° C. 24 hours
# Description: as §1, §2, §3
# [7] = tested on: Staphylococcus aureus IFO 12732; experiment: as above; format: cell-based; settings: culture 37° C. 24 hours
# Description: as §1, §2, §3
# [8] = tested on: Bacillus substilis ATCC 6633; experiment: as above; format: cell-based, Bacillus subtilis; settings: culture 37° C. 24 hours
# Description: as §1, §2, §3
# [9] = tested on: Aspergillus niger IFO 6431; experiment: Minimum development inhibiting concentration (MIC) against fungi; format: cell-based; settings: A. niger; spore solution, 27° C. 1 week
# Description: (§4) A sample fungus which had been pre-cultured was diluted with a wetting agent-containing sterilized water according to an ordinary broth dilution method to prepare a spore solution. 1 ml of the spore solution was then mixed with 1 ml of each of chemical solutions having concentrations which vary stepwise. The mixture was then cultured at a temperature of 27° C. in an incubator for 1 week. The culture was then examined for turbidity to see if the proliferation of fungus occurred. The minimum concentration at which no turbidity occurs was defined to be MIC.
# (§5) Aspergillus niger IFO 6431 (A. niger) and Candida albicans ATCC10231 (C. albicans) were used as sample microorganisms.
# [10] = tested on: Candida albicans ATCC10231; experiment: as above; format: cell-based; settings: C. albicans; spore solution, 27° C. 1 week
# Description: as §4, §5
# [11] = tested on: Staphylococcus aureus IFO 12732; experiment: MIC by agar plate dilution method; format: cell-based; settings: S. aureus, 37° C. 24 hours
# Description: (§6) MIC value was determined by an agar plate dilution method according to the Law of Japanese Society of Chemotherapy. In some detail, a bacteria solution in stationary state which had been adjusted with a nutrient broth such that the concentration of bacterial suspension reached 10^6 cell/ml was added to agar culture media containing chemical solutions having concentrations which vary in two stages where it was then allowed to stand at a temperature of 37° C. for 24 hours for culture. The bacteria solution was then examined to see if the proliferation of bacteria occurred. Thus, MIC was determined.
# (§7) The following three kinds of bacteria were used as sample bacteria:
# Staphylococcus aureus IFO 12732 (S. aureus)
# [12] = tested on: Escherichia coli K12 W 3110; experiment: MIC by agar plate dilution method; format: cell-based; settings: E. coli, 37° C. 24 hours
# Description: as §6, §7
# Escherichia coliK12 W 3110 (E. coli);
# [13] = tested on: Pseudomonas aeruginosa ATCC27583; experiment: MIC by agar plate dilution method; format: cell-based; settings: P. aeruginosa, 37° C. 24 hours
# Description: as §6, §7
# Pseudomonas aeruginosa ATCC27583 (P. auruginosa); and […]
compound,measurement,setting,value
"1,4-bis(N,N-butyl-N-methylammoniomethyl)-2,3,5,6-tetramethylphenylene dichloride [BAMD-4]",MIC Escherichia coli K12 W 3110,[1],16 ppm
"1,4-bis(N,N-dioctyl-N-methylammoniomethyl)-2,3,5,6-tetramethylphenylene dichloride [BAMD-8]",MIC Escherichia coli K12 W 3110,[1],1 ppm
"1,4-bis(N,N-dioctyl-N-methylammoniomethyl)phenylene di-p-toluenesulfonate [Example 4BAMP-8S]",MIC Escherichia coli K12 W 3110,[1],1 ppm
"1,4-bis(N,N-dipentyl-N-methylammoniomethyl)phenylene di-p-tolyenesulfonate [Example 4BAMP-5S]",Minimum hemolytic activity concentration Erythrocyte,Erythrocyte,400 ppm
same,MIC Escherichia coli K12 W 3110,[1],16 ppm
"1,4-bis(N-octyl-N-hexyl-N-methylammoniomethyl)-2,3,5,6-tetramethylphenylene dichloride [BAMD-6, 8]",MBC,[2]; contact 30° C. 30 minutes,<2 ppm
same,MBC,Bacillus cereus IFO 3001; contact 30° C. 30 minutes,<2 ppm
same,MBC,[3]; contact 30° C. 30 minutes,<2 ppm
same,MBC,Proteus rettgeri NIT 96; contact 30° C. 30 minutes,<2 ppm
same,MBC,[4]; contact 30° C. 30 minutes,<2 ppm
same,MBC,[5]; contact 30° C. 30 minutes,<2 ppm
same,MBC,[6]; contact 30° C. 30 minutes,<2 ppm
same,MBC,[7]; contact 30° C. 30 minutes,<2 ppm
same,MIC Escherichia coli K12 W 3110,[1],1 ppm
same,MBC,[8]; contact 30° C. 30 minutes,<2 ppm
"1,4-bis(N-octyl-N-hexyl-N-methylammoniomethyl)phenylene dibromide [4BAMP-6, 8B]",MIC,[9],8 ppm
same,MIC,[10],<2 ppm
same,MIC,[11],<2 ppm
same,MIC,[12],8 ppm
same,MIC,[13],<2 ppm
"CCCCCC[N+](C)(CCCC)Cc1ccc(C[N+](C)(CCCC)CCCCCC)cc1.[I-].[I-] (stereo not drawn) [4BAMP-4, 6I, 1,4-bis(N-butyl-N-hexyl-N-methylammoniomethyl)phenylene diiodide]",MIC Escherichia coli K12 W 3110,[1],16 ppm
"CCCCCCCC[N+](C)(CCCC)Cc1ccc(C[N+](C)(CCCC)CCCCCCCC)cc1.[I-].[I-] (stereo not drawn) [4BAMP-4, 8I, 1,4-bis(N-butyl-N-octyl-N-methylammoniomethyl)phenylene diiodide]",MIC Escherichia coli K12 W 3110,[1],2 ppm
"CCCCC[N+](C)(CCCCC)Cc1c(C)c(C)c(C[N+](C)(CCCCC)CCCCC)c(C)c1C.[Cl-].[Cl-] [BAMD-5, 1,4-bis(N,N-dipentyl-N-methylammoniomethyl)-2,3,5,6-tetramethylphenylene dichloride]",Minimum hemolytic activity concentration Erythrocyte,Erythrocyte,800 ppm
same,MIC Escherichia coli K12 W 3110,[1],2 ppm
"CCCC[N+](C)(CCCC)Cc1c(C)cc(C)c(C[N+](C)(CCCC)CCCC)c1C.[Cl-].[Cl-] [BAMT-4, 2,4-bis(N,N-dibutyl-N-methylammoniomethyl)-1,3,5-trimethylbenzene dichloride]",MIC,[1],8 µg/mL
"CCCCC[N+](C)(CCCCC)Cc1c(C)cc(C)c(C[N+](C)(CCCCC)CCCCC)c1C.[Cl-].[Cl-] [BAMT-5, 2,4-bis(N,N-dipentyl-N-methylammoniomethyl)-1,3,5-trimethylbenzene dichloride]",Minimum hemolytic activity concentration Erythrocyte,Erythrocyte,800 ppm
same,MIC,[1],2 µg/mL
"CCCCCC[N+](C)(CCCCCC)Cc1c(C)cc(C)c(C[N+](C)(CCCCCC)CCCCCC)c1C.[Cl-].[Cl-] [BAMT-6, 2,4-bis(N,N-dihexyl-N-methylammoniomethyl)-1,3,5-trimethylbenzene dichloride]",MBC,"[2]; IFO3134, contact 30° C. 30 minutes, read-out: MBC",< 2 µg/mL
same,MBC,"Bacillus cereus IFO 3001; IFO3001, contact 30° C. 30 minutes, read-out: MBC",< 2 µg/mL
same,MBC,"[3]; ATCC13883, contact 30° C. 30 minutes, read-out: MBC",< 2 µg/mL
same,MBC,"Proteus rettgeri NIT 96; Providencia rettgeri, NIT96, contact 30° C. 30 minutes, read-out: MBC",< 2 µg/mL
same,MBC,"[4]; K12W3110, contact 30° C. 30 minutes, read-out: MBC",4 µg/mL
same,MBC,"[5]; ATCC27583, contact 30° C. 30 minutes, read-out: MBC",4 µg/mL
same,MBC,"[6]; K12OUT8401, contact 30° C. 30 minutes, read-out: MBC",< 2 µg/mL
same,MBC,"[7]; IFO12732, contact 30° C. 30 minutes, read-out: MBC",< 2 µg/mL
same,Minimum hemolytic activity concentration Erythrocyte,Erythrocyte,400 ppm
same,MIC,[1],1 µg/mL
same,MBC,"[8]; ATCC6633, contact 30° C. 30 minutes, read-out: MBC",< 2 µg/mL
"CCCCCCCC[N+](C)(CCCCCC)Cc1c(C)cc(C)c(C[N+](C)(CCCCCC)CCCCCCCC)c1C.[Cl-].[Cl-] (stereo not drawn) [BAMT-6, 8, 2,4-bis(N-octyl-N-hexyl-N-methylammoniomethyl)-1,3,5-trimethylbenzene dichloride]",MIC,[1],1 µg/mL
"CCCCCCCC[N+](C)(CCCCCCCC)Cc1c(C)cc(C)c(C[N+](C)(CCCCCCCC)CCCCCCCC)c1C.[Cl-].[Cl-] [BAMT-8, 2,4-bis(N,N-dioctyl-N-methylammoniomethyl)-1,3,5-trimethylbenzene dichloride]",MIC,[1],1 µg/mL
"CCCCCC[N+](C)(CCCCCC)Cc1ccccc1C[N+](C)(CCCCCC)CCCCCC.[Cl-].[Cl-] [Example 2BAMP-6C, 1,2-bis(N,N-dihexyl-N-methylammoniomethyl)phenylene dichloride]",MIC Escherichia coli K12 W 3110,[1],1 ppm
"CCCCCC[N+](C)(CCCCCC)Cc1cccc(C[N+](C)(CCCCCC)CCCCCC)c1.[Cl-].[Cl-] [Example 3BAMP-6C, 1,3-bis(N,N-dihexyl-N-methylammoniomethyl)phenylene dichloride]",MIC Escherichia coli K12 W 3110,[1],1 ppm
"CCCCCCCCCCCC[N+](C)(C)Cc1ccc(C[N+](C)(C)CCCCCCCCCCCC)cc1.[Cl-].[Cl-] [Example 4BADMP-12C, 1,4-bis(N-dodecyl-N,N-dimethylammoniomethyl)phenylene dichloride, reference compound]",Minimum hemolytic activity concentration Erythrocyte,Erythrocyte,12.5 ppm
"CCCCCCCC[N+](C)(CCCCCCCC)Cc1ccc(C[N+](C)(CCCCCCCC)CCCCCCCC)cc1.[Cl-].[Cl-] [Example 4BAMP-8C, 1,4-bis(N,N-dioctyl-N-methylammoniomethyl)phenylene dichloride]",MIC Escherichia coli K12 W 3110,[1],1 ppm
"CCCCCCCC[n+]1ccc(SCc2ccc(CSc3cc[n+](CCCCCCCC)cc3)cc2)cc1.[I-].[I-] [Example I-8, 4,4′-(p-xylyldithio)-bis(1-octylpyridinium iodide), reference compound]",Minimum hemolytic activity concentration Erythrocyte,Erythrocyte,50 ppm

# Source: patent US6664224B2, “Quaternary ammonium salt and process for the preparation thereof” (priority 2000, dated 2003)
